Converted amounts (≈) assume the structure as drawn.
Assays:
[1] = test system: Candida parapsilosis ATCC 22019; assay: Broth microdilution, C. parapsilosis ATCC 22019; assay type: cell-based; details: Cp 22019; for MFC/MIC Ratio: <4 fungicidal, ≥4 fungistatic
How it was run: (§1)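 Compounds are diluted twofold, starting at 1000 µg/mL, in Mueller-Hinton medium, supplemented with 2% glucose for the yeast strains. Wells then receive a tenfold-diluted 0.5 McFarland inoculum and incubate 18 ± 2 h at 35 ± 2 °C. Absorbance at 570 nm gives the MIC.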

Candida auris CDC B11903 = assay: Broth microdilution, C. auris CDC B11903; assay type: cell-based; details: Ca B11903
How it was run: as §1

Candida spp. = assay: Broth microdilution, Candida spp.; assay type: cell-based; details: for MBC (range, C. parapsilosis ATCC 22019 and C. tropicalis ATCC 1369) / MIC (range, C. parapsilosis ATCC 22019 and C. tropicalis ATCC 1369): range over both strains and the listed compounds
Procedure: The antibacterial activity of the obtained thiosemicarbazides and hydrazide–hydrazones was determined by evaluating their ability to inhibit microbial growth in vitro using the broth microdilution method, according to the guidelines of the European Committee on Antimicrobial Susceptibility Testing (EUCAST). The method involved the preparation of microbial suspensions with a standardized density of 0.5 on the McFarland scale (equivalent to 1.5 × 10^8 colony-forming units/mL for bacteria and […] for fungi). A solution of the test substances was then prepared (initial concentration 1000 µg/mL, diluted in sterile Mueller-Hinton broth for bacteria or Mueller-Hinton with 2% glucose for fungi). The test was carried out in 96-well polystyrene flat-bottom plates (Medlab, Poland) with 100 µL of appropriate sterile microbiological medium in each well. The first wells were filled with 200 µL of the test substance, diluted to the initial concentration, and then double-decreasing dilutions were made under aseptic conditions using an automatic pipette. The final step was the addition of a 10-fold diluted microbial suspension of 2 µL. At the same time, the following controls were included: (a) medium control (100 µL of sterile medium without microorganisms added), (b) microbial viability control, (c) test substance control (dilutions without added micro-organisms), (d) positive control of the drug used in the clinic. The plates thus prepared were incubated for 18 ± 2 h at 35 ± 2 °C under conditions optimal for the growth of the test microorganisms. After incubation, the spectrophotometric absorbance at 570 nm in each well of the plate was read. The aim of this part of the study was to determine two parameters: the minimum inhibitory concentration (MIC) and the minimum bactericidal or fungicidal concentration (MBC/MFC) of the test compound. […] The MBC value was determined by adding 5 µL of the contents of each well of the plate to solid sterile MHA or MHA + 2%glc medium for bacteria and fungi, respectively. The area on the plate where 99.9% inhibition of microbial growth was observed indicated the lethal concentration. In addition, the quotient MBC(MFC)/MIC could be determined to assess the nature of the activity of the test substance. If MBC(MFC)/MIC was <4, the test substance was bactericidal/fungicidal, whereas if MBC(MFC)/MIC was ≥4, it was bacteriostatic/fungistatic. Amoxicillin (Glentham Life Sciences, USA) and nystatin (Glentham Life Sciences, USA) were used as the controls for this assay.
The test was performed either on bacteria, comprising: Gram-positive (Staphylococcus aureus ATCC 25923, Staphylococcus aureus ATCC 6538, Staphylococcus aureus ATCC 43300 methicillin-resistant MRSA, Staphylococcus epidermidis ATCC 12228, Micrococcus luteus ATCC 10240, Bacillus subtilis ATCC 6633, Bacillus cereus ATCC 10876) and Gram-negative (Escherichia coli ATCC 25922, Pseudomonas aeruginosa ATCC 27853, Proteus mirabilis ATCC 12453, Klebsiella pneumoniae ATCC 13883) or yeast (Candida parapsilosis ATCC 22019, Candida glabrata ATCC 90030, Candida krusei ATCC 14243, Candida glabrata ATCC 15126, Candida tropicalis ATCC 1369, Candida auris CDC B11903, Candida lusitaniae ATCC 3449) reference strains from the American Type Culture Collection (ATCC) or the Centers for Disease Control and Prevention (CDC).

[2] = test system: Micrococcus luteus ATCC 10240; assay: Broth microdilution, M. luteus ATCC 10240; assay type: cell-based; details: Ml 10240; for MBC/MIC Ratio: <4 bactericidal, ≥4 bacteriostatic
How it was run: (§2)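 EUCAST broth microdilution: inoculum 0.5 McFarland, 10-fold diluted; Mueller-Hinton broth (bacteria) or MH + 2% glucose (yeast); twofold dilutions from 1000 µg/mL; 18 ± 2 h at 35 ± 2 °C, A570 read for MIC. MBC/MFC from subculture on MHA or MHA + 2% glc (99.9% kill).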

[3] = test system: Staphylococcus epidermidis ATCC 12228; assay: Broth microdilution, S. epidermidis ATCC 12228; assay type: cell-based; details: Se 12228; for MBC/MIC Ratio: <4 bactericidal, ≥4 bacteriostatic
How it was run: as §2

[4] = test system: Bacillus cereus ATCC 10876; assay: Broth microdilution, B. cereus ATCC 10876; assay type: cell-based; details: Bc 10876; for MBC/MIC Ratio: <4 bactericidal, ≥4 bacteriostatic
How it was run: as §1

[5] = test system: Candida lusitaniae ATCC 3449; assay: Broth microdilution, C. lusitaniae ATCC 3449; assay type: cell-based; details: Cl 3449
How it was run: as §1

[6] = test system: Candida glabrata ATCC 15126; assay: Broth microdilution, C. glabrata ATCC 15126; assay type: cell-based; details: Cg 15126
How it was run: as §1

[7] = test system: Staphylococcus aureus ATCC 25923; assay: Broth microdilution, S. aureus ATCC 25923; assay type: cell-based; details: Sa 25923
How it was run: as §2

[8] = test system: Candida krusei ATCC 14243; assay: Broth microdilution, C. krusei ATCC 14243; assay type: cell-based; details: Ck 14243
How it was run: as §1

[9] = test system: Staphylococcus aureus ATCC 43300 methicillin-resistant MRSA; assay: Broth microdilution, S. aureus ATCC 43300 MRSA; assay type: cell-based; details: Sa 43300 MRSA
How it was run: as §2

[10] = test system: Candida tropicalis ATCC 1369; assay: Broth microdilution, C. tropicalis ATCC 1369; assay type: cell-based; details: Ct 1369; for MFC/MIC Ratio: <4 fungicidal, ≥4 fungistatic
How it was run: as §1

[11] = test system: Candida glabrata ATCC 90030; assay: Broth microdilution, C. glabrata ATCC 90030; assay type: cell-based; details: Cg 90030
How it was run: as §1

[12] = test system: Staphylococcus aureus ATCC 6538; assay: Broth microdilution, S. aureus ATCC 6538; assay type: cell-based; details: Sa 6538
How it was run: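 MIC: A570 after 18 ± 2 h, 35 ± 2 °C. Medium: MH broth (bacterium) or MH + 2% glucose (yeasts). Serial 2-fold dilutions of compound, top solution 1000 µg/mL. Inoculum: 0.5 McFarland suspension diluted 10×. MBC/MFC: subculture onto MHA or MHA + 2% glc, 99.9% growth inhibition.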

[13] = test system: Bacillus subtilis ATCC 6633; assay: Broth microdilution, B. subtilis ATCC 6633; assay type: cell-based; details: Bs 6633; for MBC/MIC Ratio: <4 bactericidal, ≥4 bacteriostatic
How it was run: as §2

Structure (SMILES)	MFC [1] [mg/L]	MIC [1] [mg/L]	MIC (Candida auris CDC B11903) [mg/L]	MBC (range, C. parapsilosis ATCC 22019 and C. tropicalis ATCC 1369) (Candida spp.) [mg/L]	MIC (range, C. parapsilosis ATCC 22019 and C. tropicalis ATCC 1369) (Candida spp.) [mg/L]	MBC [2] [mg/L]	MIC [2] [mg/L]	MBC [3] [mg/L]	MIC [3] [mg/L]	MBC [4] [mg/L]	MIC [4] [mg/L]	MIC [5] [mg/L]	MIC [6] [mg/L]	MBC [7] [mg/L]	MIC [7] [mg/L]	MIC [8] [mg/L]	MIC [9] [mg/L]	MIC [10] [mg/L]	MIC [11] [mg/L]	MIC [12] [mg/L]	further results
Cn1cc([N+](=O)[O-])nc1C(=O)NNC(=S)Nc1ccccc1C(F)(F)F [Compound 12]	>1000	125 (≈ 322 µM)	>1000	500 to 1000	62.5 to 1000	500 (≈ 1290 µM)	250 (≈ 644 µM)	500 (≈ 1290 µM)	500 (≈ 1290 µM)	500 (≈ 1290 µM)	500 (≈ 1290 µM)	>1000	>1000	>1000	250 (≈ 644 µM)	>1000	1000 (≈ 2580 µM)	500 (≈ 1290 µM)	>1000	500 (≈ 1290 µM)	MBC/MIC Ratio [2]: 2; MBC/MIC Ratio [3]: 1; MBC/MIC Ratio [4]: 1; MBC [9]: >1000 mg/L; MFC [10]: 1000 mg/L (≈ 2580 µM); MFC/MIC Ratio [10]: 2; MBC [12]: >1000 mg/L; MBC [13]: 250 mg/L (≈ 644 µM); MIC [13]: 250 mg/L (≈ 644 µM); MBC/MIC Ratio [13]: 1
Cn1cc([N+](=O)[O-])nc1C(=O)NNC(=S)Nc1cccc(C(F)(F)F)c1 [Compound 13]	1000 (≈ 2580 µM)	500 (≈ 1290 µM)	>1000	500 to 1000	62.5 to 1000	>1000	500 (≈ 1290 µM)	>1000	1000 (≈ 2580 µM)	>1000	1000 (≈ 2580 µM)	>1000	>1000	>1000	500 (≈ 1290 µM)	>1000	>1000	>1000	>1000	>1000	MFC/MIC Ratio [1]: 2; MBC [13]: 500 mg/L (≈ 1290 µM); MIC [13]: 500 mg/L (≈ 1290 µM); MBC/MIC Ratio [13]: 1
COc1cccc(NC(=S)NNC(=O)c2nc([N+](=O)[O-])cn2C)c1 [Compound 10]	>1000	250 (≈ 714 µM)	>1000	500 to 1000	62.5 to 1000	250 (≈ 714 µM)	250 (≈ 714 µM)	500 (≈ 1430 µM)	500 (≈ 1430 µM)	1000 (≈ 2850 µM)	500 (≈ 1430 µM)	>1000	>1000	>1000	250 (≈ 714 µM)	>1000	500 (≈ 1430 µM)	250 (≈ 714 µM)	>1000	1000 (≈ 2850 µM)	antifungal activity towards tested Candida strains (Candida spp.; in words): fungistatic activity; MBC/MIC Ratio [2]: 1; MBC/MIC Ratio [3]: 1; MBC/MIC Ratio [4]: 2; MBC [9]: >1000 mg/L; MFC [10]: 1000 mg/L (≈ 2850 µM); MFC/MIC Ratio [10]: 4; MBC [12]: >1000 mg/L; MBC [13]: 500 mg/L (≈ 1430 µM); MIC [13]: 125 mg/L (≈ 357 µM); MBC/MIC Ratio [13]: 4
COc1ccccc1NC(=S)NNC(=O)c1nc([N+](=O)[O-])cn1C [Compound 9]	1000 (≈ 2850 µM)	500 (≈ 1430 µM)	>1000	500 to 1000	62.5 to 1000	>1000	500 (≈ 1430 µM)	>1000	500 (≈ 1430 µM)	>1000	1000 (≈ 2850 µM)	>1000	>1000	>1000	500 (≈ 1430 µM)	>1000	1000 (≈ 2850 µM)	500 (≈ 1430 µM)	>1000	1000 (≈ 2850 µM)	MFC/MIC Ratio [1]: 2; MBC [9]: >1000 mg/L; MFC [10]: 1000 mg/L (≈ 2850 µM); MFC/MIC Ratio [10]: 2; MBC [12]: >1000 mg/L; MBC [13]: 500 mg/L (≈ 1430 µM); MIC [13]: 500 mg/L (≈ 1430 µM); MBC/MIC Ratio [13]: 1
Cn1cc([N+](=O)[O-])nc1C(=O)NN=Cc1cccc(Cl)c1F [Compound 28, N’-[(3-chloro-2-fluorophenyl)methylidene]-1-methyl-4-nitro-1H-imidazole-2-carbohydrazide]	–	–	–	–	–	–	–	–	–	–	–	–	–	–	–	–	–	–	–	–	melting point: 252 to 255 °C

From PMC11243693, “Synthesis and Biological Evaluation of New Compounds with Nitroimidazole Moiety” (Molecules, 2024)
